According to patent publication US20100204263A1, “METHOD OF TREATING MULTIDRUG RESISTANT CANCERS” (priority 2007, published 2010):
Where two headings read alike, the source gives them in different places.

Experiments:
[1] = system: K562 (human leukemia) cell lines and a K562 cell line selected for resistance to daunorubicin; assay: MTS cell proliferation assay, K562 and K562 resistant cell lines; assay type: cell-based
Description: MTS assay is an assay in which the bioreduction of the MTS reagent (3-(4,5-dimethylthiazol-2-yl)-5-(3-carboxymethoxyphenyl)-2-(4-sulfophenyl)-2H-tetrazolium)) by cells is being measured to assess metabolic activity of cells is based on the ability of a mitochondrial dehydrogenase enzyme from viable cells to cleave the tetrazolium rings of the MTS and form formazan crystals which are largely impermeable to cell membranes, thus resulting in its accumulation within healthy cells. Solubilization of the cells by the addition of a detergent results in the liberation of the crystals which are solubilized. The number of surviving cells is directly proportional to the level of the formazan product created. The color can then be quantified using a simple colorimetric assay. The results can be read on a multiwell scanning spectrophotometer (ELISA reader).

[2] = system: IGROV1 (human ovarian) cell line; assay: SRB cell proliferation assay, IGROV1; assay type: cell-based
Description: (§1) The T8 resistant cell line has been characterized with over-expression of the multidrug resistant protein BCRP (breast cancer resistance protein). Topotecan, which is a known substrate for BCRP, was used as a control.
(§2) Sulforhodamine-B (SRB) assay is performed to assess cell survival. SRB is a water-soluble dye that binds to the basic amino acids of the cellular proteins. Thus, colorimetric measurement of the bound dye provides an estimate of the total protein mass that is related to the cell number. The color can then be quantified using a simple colorimetric assay. The results can be read on a multiwell scanning spectrophotometer (ELISA reader).

[3] = system: HL60 (human promyelocytic leukemia) cells; assay: WST-1 cell proliferation assay, HL60; assay type: cell-based
Description: (§3) The HL60NCR resistant cell line has been characterized with over-expression of the multidrug resistant protein (MDR; p-glycoprotein). The over-expression ratio (level of MDR in resistant cell line over level of MDR in the parental cell line) is 8 fold with a 10 fold increase in pgp function. Pgp surface expression was measured by flow cytometry with the MRK16 antibody and Pgp function with the generic substrate, Rh123.
(§4) WST-1 is a water-soluble tetrazolium salt that can be used for cell proliferation or cell viability assays. The rate of WST-1 cleavage by mitochondrial dehydrogenases correlates with the number of viable cells in the culture. WST-1 is added directly to the cells ( 1/10th of the culture volume) and absorbance at 450 nm can be measured using an ELISA plate reader following a short incubation at 37° C.

Pgp, MRP-1 or BCRP [4] = assay: Resistance Ratios in three pairs of parental and resistant cell lines; assay type: cell-based, human; conditions: IC50 resistant / IC50 parental; HL60-HL60VCR, HL60-HL60ADR, 8226-8226/MR20
Description: The Resistance Ratios were calculated as IC50 of the resistant cell line/IC50 of the parental cell line.

Pgp, MRP-1 or BCRP [5] = assay: Resistance Modifying Factors in three pairs of parental and resistant cell lines; assay type: cell-based, human; conditions: IC50 resistant without modulator / with modulator
Description: The Resistance Modifying Factors were calculated as IC50 of the resistant cell line in the absence of modulator/IC50 of the resistant cell line in the presence of modulator.

[6] = system: K562-K562/DOX cells (Pgp negative and Pgp positive); assay: Drug accumulation assay, amonafide retention in K562 and K562/DOX; assay type: cell-based, human
Description: Functional expression analyses of Pgp were performed on a BD FACSCalibur flow cytometer (Franklin Lakes, N.J.). […] Data analysis was performed using the Dako Cytomation Summit software, version 4.0 (Fort Collins, Colo.). […] Differential Pgp staining of anti-Pgp treated cells was compared to that of control cells counted with the same number of gated events. All test samples were compared to their respective controls using Kolmogorov-Smirnov (KS) non-parametric statistics and expressed as D-values ranging from 0 to 1. These analyses were performed using the NCSS 2007 software (Kaysville, Utah). This approach addresses the maximum difference between two empirical distribution functions.

[7] = system: HL60 cells (Pgp negative); assay: Drug accumulation assay, HL60; assay type: cell-based, human; conditions: HL60, increasing concentrations of amonafide
Description: (§5) Functional expression analyses of Pgp were performed on a BD FACSCalibur flow cytometer (Franklin Lakes, N.J.). […] Data analysis was performed using the Dako Cytomation Summit software, version 4.0 (Fort Collins, Colo.).

[8] = system: HL60/VCR cells (Pgp positive); assay: Drug accumulation assay, HL60/VCR; assay type: cell-based, human
Description: as §5

[9] = system: HL60/ADR cells (MRP-1 positive); assay: Drug accumulation assay, HL60/ADR; assay type: cell-based, human
Description: Following uptake, the cells were washed with PBS and resuspended in fresh medium. An aliquot of cells from each sample was placed on ice for quantitation of baseline drug uptake. The remaining cells were incubated further and then resuspended in chilled fresh medium, and placed on ice for immediate flow cytometric analysis.
Functional expression analyses of MRP-1 were performed on a BD FACSCalibur flow cytometer (Franklin Lakes, N.J.). Cellular amonafide content was measured on the Cytopeia Influx flow cytometer (Seattle, Wash.). Data analysis was performed using the Dako Cytomation Summit software, version 4.0 (Fort Collins, Colo.).

[10] = system: 8226/MR20 cells (BCRP positive); assay: Drug accumulation assay, 8226/MR20; assay type: cell-based, human; conditions: 8226/MR20 ± FTC
Description: Functional expression analyses of BCRP were performed on a BD FACSCalibur flow cytometer (Franklin Lakes, N.J.). […] Data analysis was performed using the Dako Cytomation Summit software, version 4.0 (Fort Collins, Colo.).

[11] = system: pretreatment secondary AML patient cells; assay: Amonafide and daunorubicin efflux in cryopreserved cells of patients treated with amonafide+cytarabine; assay type: cell-based, human; conditions: cells from 15 patients treated with amonafide+cytarabine
Description: Cryopreserved cells were tested for viability and samples with viabilities less than 40% were considered inevaluable and discarded.
To measure drug uptake, the substrates were incubated with cells in medium containing each drug alone, or in combination with the modulator at the desired final concentrations. Cells were then washed and resuspended in PBS, and placed on ice. Drug-associated fluorescence was measured by flow cytometry using a FacScan flow cytometer (Becton Dickinson Immunocytometry Systems, San Jose, Calif.) equipped in standard fashion with an Argon laser for 488 nm excitation and a 585/42 band-pass filter (FL2) or a 670 long-pass (FL3) filter for emission collection. Data were analyzed with WinList software (Verity Software House, Topsham, Me.).

[12] = system: P388 (murine leukemia) cell lines and a P388 cell line selected for resistance to doxorubicin; conditions: MTT
Description: The P388 resistant cell line has been characterized with over-expression of the multidrug resistant protein (MDR; p-glycoprotein).
MTT [3-(4,5-dimethylthiazol-2-yl)-2,5-diphenyltetrazolium bromide] assay, first described by Mosmann in 1983, is based on the ability of a mitochondrial dehydrogenase enzyme from viable cells to cleave the tetrazolium rings of the pale yellow MTT and form a dark blue formazan crystals which is largely impermeable to cell membranes, thus resulting in its accumulation within healthy cells. Solubilization of the cells by the addition of a detergent results in the liberation of the crystals which are solubilized. The number of surviving cells is directly proportional to the level of the formazan product created. The color can then be quantified using a simple colorimetric assay. The results can be read on a multiwell scanning spectrophotometer (ELISA reader).

[13] = system: MCF7 (human breast cancer) cell lines and a MCF7 cell line selected for resistance to doxorubicin; conditions: clonogenic
Description: The MCF7 resistant cell line has been characterized with over-expression of the multidrug resistant protein (MDR; p-glycoprotein).
In the clonogenic assay cells are treated in vitro and then suspended in a soft agar/cell media mixture. The cells are allowed to grow in definable and distinct clumps of cells, referred to as clones, based upon the survival of the cells originally treated. After a defined time span the number of clones is then counted by microscope.

Caco-2 cell monolayers [14] = conditions: human, Caco-2, 120 min, 5 μM
Description: (§6) Caco-2 cell permeability studies were performed using Caco-2 cell monolayers grown on microporous membranes in multiwell insert systems. […] The samples were analyzed using LC/MS detection. […] This is the slope of the basolateral concentration versus time curve divided by the concentration of compound in the apical dosing chamber and the total area of the Caco-2 cell monolayer.

Pgp [15] = molecular target: T1, Pgp (Homo sapiens, UniProt P08183)
Description: (§7) Both the Caco-2 and MDR1-MDCK cells were used for this model.

Pgp [16] = molecular target: T1, Pgp; conditions: digoxin + test compound
Description: (§8) MDR1-MDCK are Madin Darby Canine Kidney cells transfected with the human multi-drug resistance gene. Confluent monolayers made from these cells can be used to access a test compound's potential role as a P-gp substrate. The assay set up is similar to the CaCo-2 assay.
as §7

[17] = system: IGROV1-T8, a cell line selected for resistance to topotecan (increased BCRP expression); assay: cells; conditions: Homo sapiens
Description: as §1, §2

P-gp [18] = assay: in vitro; conditions: human
Description: as §6

P-gp [19] = assay: in vitro; conditions: human, MDCK-MDR1, efflux/influx ratio, Drug alone
Description: as §8
(§9) The samples were analyzed using LC/MS detection.

Caco-2 cell monolayers [20] = assay: Caco-2 cell monolayer permeability
Description: as §6

[21] = system: HL60/VCR (HL60/MDR), a cell line selected for resistance to vincristine; assay: WST-1 cell proliferation assay, HL60/VCR; conditions: for IC50: Homo sapiens, HL60/VCR, read-out: IC50 HL60/MDR
Description: as §3, §4

[22] = system: HL60/ADR, a cell line selected for resistance to adriamycin (MRP-1); assay: WST-1 cell proliferation assay, HL60/ADR
Description: The HL60/ADR resistant cell line has been characterized with over-expression of the multidrug resistant protein (MRP-1).
as §4

[23] = system: 8226/MR20, a cell line selected for resistance to mitoxantrone (BCRP); assay: WST-1 cell proliferation assay, 8226/MR20
Description: The 8226/MR20 resistant cell line has been characterized with over-expression of the multidrug resistant protein (BCRP).
BCRP surface expression was measured by flow cytometry with the BXP21 antibody.
as §4

[24] = system: secondary AML patient sample cells; assay: Drug transport (CsA modulation of uptake) in secondary AML patient cells; assay type: cell-based, human; conditions: for CsA Modulation of Uptake: D-value
Description: The expression and function of Pgp, MRP-1 and BCRP was measured in cells collected from patients with secondary AML. Pgp, MRP-1 and BCRP expression was measured by flow cytometry with the MRK16, MRPm6 and BXP21 antibodies, and function by modulation of uptake of the fluorescent substrates DiOC2(3), rhodamine-123 and pheophorbide A by PSC-833, MK571 and FTC, respectively, all measured by the Kolmogorov-Smirnov statistic, generating D-values.

[25] = system: K562 cells (Pgp negative); assay: Functional efflux assay (DiOC2), K562; assay type: cell-based, human; conditions: K562, flow cytometry
Description: The cells were washed with PBS and resuspended in medium. An aliquot was taken for cytometric quantitation of baseline dye uptake. The remaining samples were incubated again either with or without CSA and resuspended in fresh, chilled medium in order to assess dye efflux also by flow cytometric analysis. Functional expression analyses of Pgp were performed on a BD FACSCalibur flow cytometer (Franklin Lakes, N.J.). Cellular amonafide content was measured on the Cytopeia Influx flow cytometer (Seattle, Wash.). Data analysis was performed using the Dako Cytomation Summit software, version 4.0 (Fort Collins, Colo.). […] Differential Pgp staining of anti-Pgp treated cells was compared to that of control cells counted with the same number of gated events. […] These analyses were performed using the NCSS 2007 software (Kaysville, Utah). This approach addresses the maximum difference between two empirical distribution functions.

[26] = system: IGROV1-T8, a cell line selected for resistance to topotecan (increased BCRP expression); conditions: T8 resistant line vs IGROV1
Description: as §1, §2

[27] = IGROV-1, IGROV1, experiment (1), read-out: IC50
[28] = IGROV-1, IGROV1, experiment (2), read-out: IC50

T1 sequence (P08183 whole entry): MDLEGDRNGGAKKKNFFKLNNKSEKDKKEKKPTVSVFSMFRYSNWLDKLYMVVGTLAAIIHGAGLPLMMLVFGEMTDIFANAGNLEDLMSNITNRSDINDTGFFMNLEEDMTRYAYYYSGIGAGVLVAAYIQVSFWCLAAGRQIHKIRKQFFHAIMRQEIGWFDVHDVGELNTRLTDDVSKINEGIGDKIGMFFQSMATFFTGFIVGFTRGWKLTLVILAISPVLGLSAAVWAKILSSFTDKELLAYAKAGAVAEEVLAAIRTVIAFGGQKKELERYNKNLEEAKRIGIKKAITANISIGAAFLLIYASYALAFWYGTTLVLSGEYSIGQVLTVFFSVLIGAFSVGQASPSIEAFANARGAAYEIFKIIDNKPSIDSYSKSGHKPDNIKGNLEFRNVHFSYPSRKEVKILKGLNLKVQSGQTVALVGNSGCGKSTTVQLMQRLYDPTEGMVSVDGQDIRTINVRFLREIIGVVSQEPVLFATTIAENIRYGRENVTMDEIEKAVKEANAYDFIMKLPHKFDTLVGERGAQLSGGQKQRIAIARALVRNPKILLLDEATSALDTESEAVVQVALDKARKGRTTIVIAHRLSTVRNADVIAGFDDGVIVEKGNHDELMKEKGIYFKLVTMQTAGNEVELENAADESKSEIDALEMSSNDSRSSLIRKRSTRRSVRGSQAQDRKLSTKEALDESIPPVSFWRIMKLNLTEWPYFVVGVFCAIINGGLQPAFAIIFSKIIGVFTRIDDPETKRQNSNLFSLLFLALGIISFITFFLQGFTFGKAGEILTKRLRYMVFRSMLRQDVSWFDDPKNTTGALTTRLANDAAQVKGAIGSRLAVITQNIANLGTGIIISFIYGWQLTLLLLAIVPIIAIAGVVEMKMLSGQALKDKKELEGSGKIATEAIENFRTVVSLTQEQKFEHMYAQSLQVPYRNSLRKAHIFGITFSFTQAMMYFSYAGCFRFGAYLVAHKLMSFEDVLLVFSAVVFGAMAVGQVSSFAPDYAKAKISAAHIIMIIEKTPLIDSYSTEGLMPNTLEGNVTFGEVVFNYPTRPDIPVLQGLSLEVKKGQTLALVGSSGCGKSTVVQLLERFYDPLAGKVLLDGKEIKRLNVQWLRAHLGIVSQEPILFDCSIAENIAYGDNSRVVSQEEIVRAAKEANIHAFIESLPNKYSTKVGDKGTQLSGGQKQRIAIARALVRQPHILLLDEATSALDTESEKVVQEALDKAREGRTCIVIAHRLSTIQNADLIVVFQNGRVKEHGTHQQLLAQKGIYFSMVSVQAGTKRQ
Description for MDR1-MDCK cells (P-gp): as §8, §9

CN(C)CCN1C(=O)c2cccc3cc(N)cc(c23)C1=O [Amonafide, amonafide]
potency in resistant vs non-resistant cell line [1]: equipotent in both cell lines | IC50 ([2]; IGROV-1, IGROV1, average, read-out: IC50 (average)): 2930 nM | IC50 [2, 27]: 2540 nM | IC50 [2, 28]: 3730 nM | IC50 ([2]; IGROV-1, IGROV1, experiment (3), read-out: IC50): 2530 nM | IC50 ([3]; HL-60, wild-type HL60, WST-1, read-out: IC50 HL60): 6.98 µM | substrate status from Resistance Ratios (Pgp, MRP-1 or BCRP [4]): not a substrate for Pgp, MRP-1 or BCRP | substrate status from Resistance Modifying Factors (Pgp, MRP-1 or BCRP [5]): not a substrate for Pgp, MRP-1 or BCRP | Amonafide uptake and efflux, comparison of the two cell lines ([6]; K562 vs K562/DOX): not significantly different between the two cell lines | amonafide content in presence of Pgp inhibitor PKC412 ([6]; each cell line ± PKC412): did not significantly change | amonafide accumulation [7]: increases with increasing amonafide dose | Amonafide uptake and efflux in presence of Pgp inhibitor PSC833 [8]: did not significantly change | Amonafide uptake and efflux in presence of MRP-1 inhibitor MK571 [9]: did not significantly change | Amonafide uptake and efflux in presence of BCRP inhibitor FTC [10]: did not significantly change | drug efflux in relation to clinical response (CR vs non-CR) [11]: no significant difference | potency in resistant vs non-resistant cell line [12]: equipotent in both cell lines | potency in resistant vs non-resistant cell line [13]: equipotent in both cell lines | efflux/influx ratio, Caco-2, Drug alone (Caco-2 cell monolayers [14]): 0.9 | efflux/influx ratio, MDR1-MDCK, +CSA (MDR1-MDCK cells (P-gp); +CSA): 1.2 ± 0.8 | efflux/influx ratio, MDR1-MDCK, Drug alone (MDR1-MDCK cells (P-gp); Drug alone): 2.2 | effect of addition of CSA on efflux (MDR1-MDCK cells (P-gp); MDR1-MDCK): did not have any effect | Pgp substrate / inhibitor status (conclusion) (MDR1-MDCK cells (P-gp); conclusion from Caco-2 and MDR1-MDCK studies): neither a substrate nor an inhibitor of Pgp | effect on digoxin efflux (Pgp [15]; Caco-2): no effect | % Inhib. of control, digoxin efflux, Caco-2 (Pgp [15]; digoxin + test compound): 0% | % Inhib. of control, digoxin efflux, MDR1-MDCK (Pgp [16]): 10% | IC50 ([17]; T8, experiment (1)): 5.18 µM | IC50 ([17]; T8, experiment (2)): 4.87 µM | IC50 ([17]; T8, experiment (3)): 5.83 µM | IC50 ([17]; read-out: IC50 (average), T8, average): 5.29 µM | Papp B→A at 120 min, 5 μM (P-gp [18]; Caco-2): 26.8 ×10⁻⁶ cm/s | efflux ratio at 120 min, 5 μM (P-gp [18]; Caco-2, efflux/influx ratio, Caco-2, +CSA): 1.1 ± 0.4 | efflux ratio at 120 min, 5 μM (P-gp [18]; Caco-2, efflux/influx ratio, Caco-2, Drug alone): 0.9 ± 0.2 | efflux ratio at 120 min, 5 μM (P-gp [18]; Caco-2, ratio of Papp(B-A)/Papp(A-B)): 1 | efflux ratio at 120 min, 5 μM (P-gp [19]): 2.2 ± 0.8 | effect of addition of CSA on efflux (Caco-2 cell monolayers [20]; Caco-2): did not have any effect | efflux classification (Caco-2 cell monolayers [20]; high efflux if ratio ≧3.0 and Papp(B-A) ≧1.0×10^−6 cm/s): not having significant efflux | Fold Change in IC50 ([21]; HL60/MDR vs HL60): 0.29 | cytotoxicity in presence of Pgp inhibitor PSC833 ([21]; HL60/VCR ± PSC833): unaffected | potency in both cell lines ([21]; HL60 vs HL60/VCR): equipotent in both cell lines | IC50 [21]: 2040 nM | cytotoxicity in presence of MRP1 inhibitor MK571 ([22]; HL60/ADR ± MK571): unaffected | potency in both cell lines ([22]; HL60 vs HL60/ADR): equipotent in both cell lines | cytotoxicity in presence of BCRP inhibitor Fumitremorgin C ([23]; 8226/MR20 ± Fumitremorgin C): unaffected | potency in both cell lines ([23]; 8226 vs 8226/MR20): equipotent in both cell lines

COc1cccc2c1C(=O)c1c(O)c3c(c(O)c1C2=O)C[C@@](O)(C(C)=O)C[C@@H]3O[C@H]1C[C@H](N)[C@H](O)[C@H](C)O1 [Daunorubicin, daunorubicin]
IC50 ([3]; HL-60, read-out: IC50 HL60): 0.015 µM | increase of uptake by Cyclosporin A, mean value ([24]; 22 secondary AML samples): 19.7% | CsA Modulation of Uptake ([24]; Pt 1): 0.2 | CsA Modulation of Uptake ([24]; Pt 2): 0.14 | CsA Modulation of Uptake ([24]; Pt 3): 0.27 | CsA Modulation of Uptake ([24]; Pt 4): 0.23 | CsA Modulation of Uptake ([24]; Pt 5): 0 | CsA Modulation of Uptake ([24]; Pt 6): 0.41 | CsA Modulation of Uptake ([24]; Pt 7): 0.47 | CsA Modulation of Uptake ([24]; Pt 8): 0.31 | CsA Modulation of Uptake ([24]; Pt 9): 0.08 | CsA Modulation of Uptake ([24]; Pt 10): 0.08 | CsA Modulation of Uptake ([24]; Pt 11): 0.03 | CsA Modulation of Uptake ([24]; Pt 12): 0.37 | CsA Modulation of Uptake ([24]; Pt 13): 0.16 | CsA Modulation of Uptake ([24]; Pt 14): 0.29 | CsA Modulation of Uptake ([24]; Pt 15): 0.07 | CsA Modulation of Uptake ([24]; Pt 16): 0.08 | CsA Modulation of Uptake ([24]; Pt 17): 0.24 | CsA Modulation of Uptake ([24]; Pt 18): 0.03 | CsA Modulation of Uptake ([24]; Pt 19): 0.04 | CsA Modulation of Uptake ([24]; Pt 20): 0.35 | CsA Modulation of Uptake ([24]; Pt 21): 0.12 | CsA Modulation of Uptake ([24]; Pt 22): 0.43 | number of patient samples with uptake increased by ≧10% by Cyclosporin A ([24]; of 22 secondary AML samples): 16 patient samples | drug efflux in relation to clinical response (CR vs non-CR) [11]: negatively correlated with response | loss of potency in the Pgp+ line ([21]; HL60/VCR vs HL60): 2 log units | IC50 [21]: 92 nM | loss of potency in the BCRP line ([23]; 8226/MR20 vs 8226): ½

CCN1/C(=C/C=C/c2oc3ccccc3[n+]2CC)Oc2ccccc21.[I-] [DiOC2]
DiOC2 accumulation [25]: accumulated in Pgp negative K562 cells

CC[C@@]1(O)C(=O)OCc2c1cc1n(c2=O)Cc2cc3c(CN(C)C)c(O)ccc3nc2-1 [TPT, Topotecan]
IC50 [2, 27]: 36 nM | IC50 [2, 28]: 73.9 nM | resistance of T8 line to Topotecan relative to Amonafide [26]: 10 fold | IC50 ([17]; T8, experiment (1)): 1.1 µM | IC50 ([17]; T8, experiment (2)): 1.09 µM
